Test results: patent US10933051B2, “Carbapenem compounds and compositions for the treatment of bacterial infections” (FOB Synthesis, Inc., priority 2017, dated 2021)

Assays:
Assay type in all cases: cell-based
Parameters in all cases: unit not given here
[1] = test system: A. baumannii KABA 01-33; assay: MIC by CLSI agar/broth dilution, Test Example 1; details: Table 2; strain produces OXA-2, VIM-2
Description: (§1) The MIC (minimum inhibitory concentration) was determined by the CLSI (Clinical and Laboratory Standards Institute) methods. The agar dilution method for determining antimicrobial susceptibility was carried out using Mueller Hinton-II agar and the amount of inoculation was 10^4 CFU/spot. Broth dilution tests were performed using Mueller Hinton-II broth. All assays were run with the indicated control strains, available from the ATCC (American Type Culture Collection, Rockville, Md.).

[2] = test system: A. baumannii 4010; assay: MIC by CLSI agar/broth dilution, Test Example 1; details: Table 2; strain produces OXA-51
Description: as §1

[3] = test system: E. coli ATCC10536; assay: MIC by CLSI agar/broth dilution, Test Example 1; details: Table 2
Description: as §1

[4] = test system: P. aeruginosa ATCC27853; assay: MIC by CLSI agar/broth dilution, Test Example 1; details: Table 2
Description: as §1

[5] = test system: K. pneumoniae ATCC10031; assay: MIC by CLSI agar/broth dilution, Test Example 1; details: Table 2
Description: as §1

[6] = test system: A. baumannii FSAb-056; assay: Antimicrobial Susceptibility Test (CLSI), Test Example 3; details: Table 6; strain produces OXA-23, 51
Description: (§2) Antimicrobial Susceptibility Test was performed by the CLSI (Clinical and Laboratory Standards Institute) methods. The agar dilution method for determining antimicrobial susceptibility was carried out using Mueller Hinton-II agar and the amount of inoculation was 10^4CFU/spot. Broth dilution tests were performed using the Mueller Hinton-II broth. All assays were run with the indicated control strains, available from the ATCC (American Type Culture Collection, Rockville, Md.).

[7] = test system: A. baumannii FSAb-029; assay: as above; details: Table 6; strain produces OXA-2, IMP-1
Description: as §2

[8] = test system: P. aeruginosa FSPa-141; assay: as above; details: Table 6; strain produces VIM-2
Description: as §2

[9] = test system: A. baumannii FSAb-039; assay: as above; details: Table 6; strain produces OXA-51
Description: as §2

[10] = test system: E. coli FSEco-054; assay: as above; details: Table 6; strain produces ESBL
Description: as §2

[11] = test system: A. baumannii FSAb-141; assay: as above; details: Table 6; strain produces PER-1, OXA-23, 51, 66
Description: as §2

[12] = test system: P. aeruginosa FSPa-102; assay: as above; details: Table 6; strain produces IMP-1
Description: as §2

[13] = test system: K. pneumoniae BAA-1904; assay: as above; details: Table 6; strain produces KPC-3
Description: as §2

C[C@@H](O)[C@H]1C(=O)N2C(C(=O)O)=C(CN(C)CCNC(=O)c3ccc(O)c(O)c3)[C@H](C)[C@H]12 [Compound 8]
MIC (minimum inhibitory concentration), A. baumannii KABA 01-33 [1]: 4
MIC (minimum inhibitory concentration), A. baumannii 4010 [2]: 8
MIC (minimum inhibitory concentration), E. coil ATCC10536 [3]: 1
MIC (minimum inhibitory concentration), P. aeruginosa ATCC27853 [4]: >32
MIC (minimum inhibitory concentration), K. pneumoniae ATCC10031 [5]: 0.5

COc1ccc(C(=O)NCCN(C)CC2=C(C(=O)O)N3C(=O)[C@H]([C@@H](C)O)[C@H]3[C@H]2C)c(Cl)c1OC [Compound 15]
MIC (minimum inhibitory concentration), A. baumannii KABA 01-33 [1]: >32
MIC (minimum inhibitory concentration), A. baumannii 4010 [2]: >32
MIC (minimum inhibitory concentration), E. coil ATCC10536 [3]: 32
MIC (minimum inhibitory concentration), P. aeruginosa ATCC27853 [4]: >32
MIC (minimum inhibitory concentration), K. pneumoniae ATCC10031 [5]: 1

C[C@@H](O)[C@H]1C(=O)N2C(C(=O)O)=C(CN(C)CC(=O)NCCNC(=O)c3ccc(O)c(O)c3)[C@H](C)[C@H]12 [Compound 20]
MIC (minimum inhibitory concentration), A. baumannii KABA 01-33 [1]: 4
MIC (minimum inhibitory concentration), A. baumannii 4010 [2]: 16
MIC (minimum inhibitory concentration), E. coil ATCC10536 [3]: 0.5
MIC (minimum inhibitory concentration), P. aeruginosa ATCC27853 [4]: 16
MIC (minimum inhibitory concentration), K. pneumoniae ATCC10031 [5]: 0.25

C[C@@H](O)[C@H]1C(=O)N2C(C(=O)O)=C(CN(C)CC(=O)NCCc3ccc(O)c(O)c3)[C@H](C)[C@H]12 [Compound 22]
MIC (minimum inhibitory concentration), A. baumannii KABA 01-33 [1]: 32
MIC (minimum inhibitory concentration), A. baumannii 4010 [2]: >32
MIC (minimum inhibitory concentration), E. coil ATCC10536 [3]: 2
MIC (minimum inhibitory concentration), P. aeruginosa ATCC27853 [4]: >32
MIC (minimum inhibitory concentration), K. pneumoniae ATCC10031 [5]: 0.5

C[C@@H](O)[C@H]1C(=O)N2C(C(=O)O)=C(CN(C)CCNC(=O)CCc3ccc(O)c(O)c3Cl)[C@H](C)[C@H]12 [Compound 23]
MIC (minimum inhibitory concentration), A. baumannii KABA 01-33 [1]: 16
MIC (minimum inhibitory concentration), A. baumannii 4010 [2]: >32
MIC (minimum inhibitory concentration), E. coil ATCC10536 [3]: 8
MIC (minimum inhibitory concentration), P. aeruginosa ATCC27853 [4]: >32
MIC (minimum inhibitory concentration), K. pneumoniae ATCC10031 [5]: 2

C[C@@H](O)[C@H]1C(=O)N2C(C(=O)O)=C(CN(C)CCNC(=O)c3cc(=O)c(O)cn3O)[C@H](C)[C@H]12 [Compound 25]
MIC (minimum inhibitory concentration), A. baumannii KABA 01-33 [1]: 8
MIC (minimum inhibitory concentration), A. baumannii 4010 [2]: 16
MIC (minimum inhibitory concentration), E. coil ATCC10536 [3]: 0.5
MIC (minimum inhibitory concentration), P. aeruginosa ATCC27853 [4]: 32
MIC (minimum inhibitory concentration), K. pneumoniae ATCC10031 [5]: 0.25

C[C@@H](O)[C@H]1C(=O)N2C(C(=O)O)=C(CN(C)CC(=O)NCc3cc(=O)c(O)co3)[C@H](C)[C@H]12 [Compound 27]
MIC (minimum inhibitory concentration), A. baumannii KABA 01-33 [1]: 16
MIC (minimum inhibitory concentration), A. baumannii 4010 [2]: 8
MIC (minimum inhibitory concentration), E. coil ATCC10536 [3]: 0.063
MIC (minimum inhibitory concentration), P. aeruginosa ATCC27853 [4]: 16
MIC (minimum inhibitory concentration), K. pneumoniae ATCC10031 [5]: 0.063

C[C@@H](O)[C@H]1C(=O)N2C(C(=O)O)=C(CN(CCCNC(=O)c3ccc(O)c(O)c3)CCCNC(=O)c3ccc(O)c(O)c3)[C@H](C)[C@H]12 [Compound 110]
antimicrobial susceptibility, Ab FSAb-056 [6]: 8
antimicrobial susceptibility, Ab FSAb-029 [7]: 2
antimicrobial susceptibility, Pa FSPa-141 [8]: 16
antimicrobial susceptibility, Ab FSAb-039 [9]: 8
antimicrobial susceptibility, Ec FSEco-054 [10]: 4
antimicrobial susceptibility, Ab FSAb-141 [11]: 4
antimicrobial susceptibility, Pa FSPa-102 [12]: 8
antimicrobial susceptibility, Kp BAA-1904 [13]: >32

C[C@@H](O)[C@H]1C(=O)N2C(C(=O)O)=C(CN(CCCCNC(=O)c3ccc(O)c(O)c3)CCCNC(=O)c3ccc(O)c(O)c3)[C@H](C)[C@H]12 [Compound 111]
antimicrobial susceptibility, Ab FSAb-056 [6]: 8
antimicrobial susceptibility, Ab FSAb-029 [7]: 2
antimicrobial susceptibility, Pa FSPa-141 [8]: 16
antimicrobial susceptibility, Ab FSAb-039 [9]: 4
antimicrobial susceptibility, Ec FSEco-054 [10]: 4
antimicrobial susceptibility, Ab FSAb-141 [11]: 2
antimicrobial susceptibility, Pa FSPa-102 [12]: 4
antimicrobial susceptibility, Kp BAA-1904 [13]: >32

C[C@@H](O)[C@H]1C(=O)N2C(C(=O)O)=C(CN(CCCNC(=O)c3cccc(O)c3O)CCNC(=O)c3cccc(O)c3O)[C@H](C)[C@H]12 [Compound 112]
antimicrobial susceptibility, Ab FSAb-056 [6]: 32
antimicrobial susceptibility, Ab FSAb-029 [7]: 4
antimicrobial susceptibility, Pa FSPa-141 [8]: >32
antimicrobial susceptibility, Ab FSAb-039 [9]: 8
antimicrobial susceptibility, Ec FSEco-054 [10]: 8
antimicrobial susceptibility, Ab FSAb-141 [11]: 4
antimicrobial susceptibility, Pa FSPa-102 [12]: 16
antimicrobial susceptibility, Kp BAA-1904 [13]: >32

C[C@@H](O)[C@H]1C(=O)N2C(C(=O)O)=C(CN(CCCCNC(=O)c3cccc(O)c3O)CCCNC(=O)c3cccc(O)c3O)[C@H](C)[C@H]12 [Compound 113]
antimicrobial susceptibility, Ab FSAb-056 [6]: >32
antimicrobial susceptibility, Ab FSAb-029 [7]: >32
antimicrobial susceptibility, Pa FSPa-141 [8]: >32
antimicrobial susceptibility, Ab FSAb-039 [9]: >32
antimicrobial susceptibility, Ec FSEco-054 [10]: >32
antimicrobial susceptibility, Ab FSAb-141 [11]: >32
antimicrobial susceptibility, Pa FSPa-102 [12]: >32
antimicrobial susceptibility, Kp BAA-1904 [13]: >32

C[C@@H](O)[C@H]1C(=O)N2C(C(=O)[O-])=C(C[N+](C)(CCCNC(=O)c3ccc(O)c(O)c3F)CCCNC(=O)c3ccc(O)c(O)c3F)[C@H](C)[C@H]12 [Compound 114]
antimicrobial susceptibility, Ab FSAb-056 [6]: 8
antimicrobial susceptibility, Ab FSAb-029 [7]: 1
antimicrobial susceptibility, Pa FSPa-141 [8]: 4
antimicrobial susceptibility, Ab FSAb-039 [9]: 32
antimicrobial susceptibility, Ec FSEco-054 [10]: 2
antimicrobial susceptibility, Ab FSAb-141 [11]: 2
antimicrobial susceptibility, Pa FSPa-102 [12]: 4
antimicrobial susceptibility, Kp BAA-1904 [13]: >32

C[C@@H](O)[C@H]1C(=O)N2C(C(=O)O)=C(CN(C)CC(=O)N(CCCNC(=O)c3ccc(O)c(O)c3F)CCCNC(=O)c3ccc(O)c(O)c3F)[C@H](C)[C@H]12 [Compound 115]
antimicrobial susceptibility, Ab FSAb-056 [6]: 8
antimicrobial susceptibility, Ab FSAb-029 [7]: 2
antimicrobial susceptibility, Pa FSPa-141 [8]: 4
antimicrobial susceptibility, Ab FSAb-039 [9]: 4
antimicrobial susceptibility, Ec FSEco-054 [10]: 2
antimicrobial susceptibility, Ab FSAb-141 [11]: 2
antimicrobial susceptibility, Pa FSPa-102 [12]: 2
antimicrobial susceptibility, Kp BAA-1904 [13]: >32

C[C@@H](O)[C@H]1C(=O)N2C(C(=O)O)=C(CN(C)CC(=O)N(CCCNC(=O)c3ccc(O)c(O)c3F)CCCNC(=O)c3ccc(O)c(O)c3F)[C@H](C)[C@H]12 [Compound 117]
antimicrobial susceptibility, Ab FSAb-056 [6]: 4
antimicrobial susceptibility, Ab FSAb-029 [7]: 2
antimicrobial susceptibility, Pa FSPa-141 [8]: 8
antimicrobial susceptibility, Ab FSAb-039 [9]: 4
antimicrobial susceptibility, Ec FSEco-054 [10]: 1
antimicrobial susceptibility, Ab FSAb-141 [11]: 2
antimicrobial susceptibility, Pa FSPa-102 [12]: 2
antimicrobial susceptibility, Kp BAA-1904 [13]: >32

C[C@@H](O)[C@H]1C(=O)N2C(C(=O)[O-])=C(CN(C)CC[N+](C)(CCCNC(=O)c3ccc(O)c(O)c3F)CCCNC(=O)c3ccc(O)c(O)c3F)[C@H](C)[C@H]12 [Compound 118]
antimicrobial susceptibility, Ab FSAb-056 [6]: 8
antimicrobial susceptibility, Ab FSAb-029 [7]: 2
antimicrobial susceptibility, Pa FSPa-141 [8]: 8
antimicrobial susceptibility, Ab FSAb-039 [9]: 8
antimicrobial susceptibility, Ec FSEco-054 [10]: 2
antimicrobial susceptibility, Ab FSAb-141 [11]: 4
antimicrobial susceptibility, Pa FSPa-102 [12]: 4
antimicrobial susceptibility, Kp BAA-1904 [13]: >32

COc1ccc(C(=O)NCCCN(CCCNC(=O)c2ccc(O)c(O)c2F)CC2=C(C(=O)O)N3C(=O)[C@H]([C@@H](C)O)[C@H]3[C@H]2C)c(F)c1OC [Compound 119]
antimicrobial susceptibility, Ab FSAb-056 [6]: 8
antimicrobial susceptibility, Ab FSAb-029 [7]: 4
antimicrobial susceptibility, Pa FSPa-141 [8]: >32
antimicrobial susceptibility, Ab FSAb-039 [9]: 8
antimicrobial susceptibility, Ec FSEco-054 [10]: 16
antimicrobial susceptibility, Ab FSAb-141 [11]: 8
antimicrobial susceptibility, Pa FSPa-102 [12]: >32
antimicrobial susceptibility, Kp BAA-1904 [13]: >32

COc1ccc(C(=O)NCCCN(CCCNC(=O)c2ccc(OC)c(OC)c2F)CC2=C(C(=O)O)N3C(=O)[C@H]([C@@H](C)O)[C@H]3[C@H]2C)c(F)c1OC [Compound 120]
antimicrobial susceptibility, Ab FSAb-056 [6]: >32
antimicrobial susceptibility, Ab FSAb-029 [7]: >32
antimicrobial susceptibility, Pa FSPa-141 [8]: >32
antimicrobial susceptibility, Ab FSAb-039 [9]: >32
antimicrobial susceptibility, Ec FSEco-054 [10]: >32
antimicrobial susceptibility, Ab FSAb-141 [11]: >32
antimicrobial susceptibility, Pa FSPa-102 [12]: >32
antimicrobial susceptibility, Kp BAA-1904 [13]: >32
